From US7985761B2, “Diphenylurea derivatives and their use as chloride channel blockers or BKCa channel modulators” (Neurosearch A/S, priority 2006, dated 2011) come the findings set out here.

SMILES strings stand for the structures.

Holding throughout (assay type): cell-based
Assay [1] has as its target T1, human BK channels (Homo sapiens, UniProt Q12791).
T1 construct: expressed in transfected cells; host or cells: Xenopus oocytes
Description: Human BK channel screening, two-electrode voltage clamp in Xenopus oocytes. To be noted: 0.3 μM test compound, Xenopus oocytes expressing human BK channels. How it is done:
Human BK Channel Screening
The influence of a compound on the membrane currents was determined electrophysiologically on Xenopus Oocytes capable of expressing human BK channels, and the current through the channels was recorded using the classical two-electrode voltage clamp technique.
The first compound of Example 4, N-(3,5-Difluoro-phenyl)-N′-[3-(5-oxo-4,5-dihydro-[1,2,4]oxadiazol-3-yl)-4′-trifluoromethyl-biphenyl-4-yl]urea, was subjected to this determination at a concentrations of 0.3 μM of test compound, and it caused an increase of BK current relative to the basal current of more than 200%.
A general note: In two-electrode clamp one electrode senses voltage and the other passes current.

In assay [2] the target is T2, Volume Regulated Anion Channel (VRAC) (Homo sapiens, UniProt Q8IWT6).
T2 construct: endogenous in cells; host or cells: HEK293
T2 sequence (Q8IWT6 1-810): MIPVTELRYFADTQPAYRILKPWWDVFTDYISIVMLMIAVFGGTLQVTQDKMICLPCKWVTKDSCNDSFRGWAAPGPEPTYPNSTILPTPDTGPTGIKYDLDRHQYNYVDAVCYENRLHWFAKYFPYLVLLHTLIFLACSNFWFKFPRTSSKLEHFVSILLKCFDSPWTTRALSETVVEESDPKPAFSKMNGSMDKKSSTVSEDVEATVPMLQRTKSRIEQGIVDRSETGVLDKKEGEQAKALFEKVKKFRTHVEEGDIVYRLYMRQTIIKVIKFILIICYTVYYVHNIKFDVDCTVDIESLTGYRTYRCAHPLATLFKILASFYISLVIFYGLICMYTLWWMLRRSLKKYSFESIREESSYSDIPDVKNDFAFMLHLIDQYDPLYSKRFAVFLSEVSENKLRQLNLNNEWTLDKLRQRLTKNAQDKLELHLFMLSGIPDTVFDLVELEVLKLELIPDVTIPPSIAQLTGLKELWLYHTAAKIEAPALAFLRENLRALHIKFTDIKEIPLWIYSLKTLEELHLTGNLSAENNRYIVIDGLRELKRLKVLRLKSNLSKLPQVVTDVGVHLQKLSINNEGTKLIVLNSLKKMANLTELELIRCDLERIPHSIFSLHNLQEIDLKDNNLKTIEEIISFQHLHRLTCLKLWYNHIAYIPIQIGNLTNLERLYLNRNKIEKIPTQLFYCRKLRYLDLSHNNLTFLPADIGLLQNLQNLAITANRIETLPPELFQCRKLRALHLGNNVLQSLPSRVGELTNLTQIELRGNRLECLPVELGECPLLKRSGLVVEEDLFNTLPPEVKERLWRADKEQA
Briefly: Volume Regulated Anion Channel (VRAC) effect, whole cell patch clamp in HEK293 cells. The following applies: VRAC activated by swelling in hypotonic (75% tonicity) extracellular solution, read-out: KD value (time dependent block of VRAC current). The protocol:
Volume Regulated Anion Channel (VRAC) Effect
The activity on the Volume Regulated Anion Channel (VRAC) was tested by the whole cell patch clamp technique using Human Embryonic Kidney cells (HEK293) as described in Helix et al, J Membr Biol. 2003 196(2):83-94, In short, VRAC was activated by swelling of the cell in hypotonic (75% tonicity) extracellular salt solution and the anion current elicited by voltage ramps was measured vs. time. After stabilization of the current the compound to be tested was added to the extracellular solution and the time dependent block was followed for calculation of the KD value.
Background: In patch-clamp work, channel activity is measured electrically.

Assay [3] has as its system human erythrocyte chloride channels. Description: In vitro human erythrocyte chloride conductance. The following applies: read-out: IC50 value - the concentration at which 50% of the chloride channels are blocked. How it is done: In Vitro Human Erythrocyte Chloride Conductance
The chloride conductance was measured according to the proceeding as described in the “Biology” paragraph of the specification of WO 00/24707. The parameter calculated from these studies is the IC50 value—the concentration at which 50% of the chloride channels are blocked.

T1 sequence (Q12791 whole entry): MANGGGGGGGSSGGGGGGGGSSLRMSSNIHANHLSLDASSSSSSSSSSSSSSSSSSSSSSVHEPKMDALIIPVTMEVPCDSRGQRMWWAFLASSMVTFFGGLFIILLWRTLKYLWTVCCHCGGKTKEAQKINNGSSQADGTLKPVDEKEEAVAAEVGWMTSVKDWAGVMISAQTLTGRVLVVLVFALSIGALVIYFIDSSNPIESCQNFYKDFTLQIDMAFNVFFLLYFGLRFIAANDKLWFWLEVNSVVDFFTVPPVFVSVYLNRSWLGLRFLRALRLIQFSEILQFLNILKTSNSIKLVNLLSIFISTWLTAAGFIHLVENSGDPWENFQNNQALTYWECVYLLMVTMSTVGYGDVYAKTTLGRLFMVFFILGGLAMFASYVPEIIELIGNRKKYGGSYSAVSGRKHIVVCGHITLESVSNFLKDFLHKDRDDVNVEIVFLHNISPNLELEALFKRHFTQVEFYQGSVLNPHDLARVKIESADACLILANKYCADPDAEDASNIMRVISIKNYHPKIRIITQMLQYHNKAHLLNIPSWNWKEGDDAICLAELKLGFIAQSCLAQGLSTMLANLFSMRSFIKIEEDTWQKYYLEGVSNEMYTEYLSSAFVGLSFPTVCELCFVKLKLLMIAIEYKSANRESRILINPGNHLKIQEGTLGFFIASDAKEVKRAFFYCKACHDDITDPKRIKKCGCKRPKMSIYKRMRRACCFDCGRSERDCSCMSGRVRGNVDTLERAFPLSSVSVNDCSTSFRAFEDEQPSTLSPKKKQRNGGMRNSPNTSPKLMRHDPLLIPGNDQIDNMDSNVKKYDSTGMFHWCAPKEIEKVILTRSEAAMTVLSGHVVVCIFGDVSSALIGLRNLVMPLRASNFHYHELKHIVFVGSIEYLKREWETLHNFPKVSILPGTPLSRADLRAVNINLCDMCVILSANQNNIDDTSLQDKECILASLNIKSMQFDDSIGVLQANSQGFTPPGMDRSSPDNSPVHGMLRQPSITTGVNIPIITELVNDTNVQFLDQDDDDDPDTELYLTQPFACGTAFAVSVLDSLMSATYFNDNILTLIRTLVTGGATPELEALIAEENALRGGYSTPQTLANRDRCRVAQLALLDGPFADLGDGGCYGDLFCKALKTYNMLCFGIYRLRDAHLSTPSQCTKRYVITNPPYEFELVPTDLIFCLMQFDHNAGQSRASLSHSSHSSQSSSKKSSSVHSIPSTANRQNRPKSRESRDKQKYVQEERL

The term Kd denotes the constant that tells how readily two partners part at equilibrium. As for `O=C(Nc1cc(F)cc(F)c1)Nc1ccc(-c2ccc(C(F)(F)F)cc2)cc1-c1noc(=O)[nH]1` [first compound of Example 4, N-(3,5-Difluoro-phenyl)-N′-[3-(5-oxo-4,5-dihydro-[1,2,4]oxadiazol-3-yl)-4′-trifluoromethyl-biphenyl-4-yl]urea], the “increase of BK current relative to the basal current” value in assay [1] is given as “more than 200%”. Moreover, the Kd in assay [2] was determined as 0.23 µM. Moreover, the IC50 in assay [3] turned out to be 0.28 µM.
